Where two headings read alike, the source gives them in different places.
Assays:
[1] = test system: children with type 1 diabetes with induced hypoglycemia; settings: injected (SC) (Stenninger 1993); cited from earlier work
[2] = test system: patients with type 1 diabetes; assay: Phase III crossover study, intranasal vs IM glucagon after insulin-induced hypoglycemia (Example 9); assay type: in vivo, human; settings: post-dosing
Experimental: A multiple center, randomized, two-way, crossover Phase III study in which patients with type 1 diabetes (T1D, n=75) were enrolled to evaluate the effectiveness and safety of a single dose of intranasally administered glucagon (the powder that is the subject of this invention) compared to glucagon administered by IM injection following insulin-induced hypoglycemia was conducted. The primary endpoint in this study was the proportion of patients who achieved an increase in blood glucose levels to ≥70 mg/dL within 30 minutes of treatment with glucagon or a […] increment in blood glucose within 30 minutes of treatment with glucagon. The protocol used insulin to reduce blood glucose levels to the hypoglycemic range (target nadir of <50 mg/dL).

[3] = test system: adults with hypoglycemia; settings: cited from earlier work
[4] = water; cited from earlier work

| Substance | Time for which plasma glucose levels continued to rise [1] | Time by which blood glucose increased to within the normal range in most subjects [2] | Time for which glucose levels continued to increase after administration ([3]; adults with hypoglycemia, injected (Hvidberg 1994; Rosenfalck 1992)) | Time after dosing at which glucose levels reach a plateau ([3]; adults with type 1 diabetes and insulin-induced hypoglycemia, injected (Rosenfalck 1992)) | Time for which glucose levels continued to increase after administration ([3]; healthy adults with insulin induced hypoglycemia, injected (Hvidberg 1994)) | Aqueous solubility [4] |
| --- | --- | --- | --- | --- | --- | --- |
| glucagon [injected glucagon] | at least 45 minutes | about 15 minutes | at least 90 minutes | at least 90 minutes | at least 90 minutes |  |
| hydroxylpropyl-β-CD [HP-β-CD] |  |  |  |  |  | higher aqueous solubility than α-CD |

— patent US12370241B2, “Nasal powder formulation for treatment of hypoglycemia” (AMPHASTAR PHARMACEUTICALS, INC., priority 2015, dated 2025)
